Test results as given in patent US20250144107A1, “USE OF A PIKFYVE INHIBITOR IN COMBINATION WITH IMMUNOTHERAPY” (The Regents of the University of Michigan, priority 2023, published 2025).

What was measured:
B16-BL6 melanoma model = assay: B16-BL6 lung metastasis model after removal of primary tumors; format: in vivo, mice; settings: for efficacy of ICB to inhibit metastasis: combination with ICB (anti-PD-1 plus anti-CTLA-4); for lung metastasis: treatment alone
Procedure: FIG. 8A (Left) is a box plot of tumor volume of the efficacy of immune checkpoint inhibitors in combination with apilimod or ESK981 treatment against metastasis in a subcutaneous B16BL6 tumor; (Middle) is a series of 12 images of the efficacy of immune checkpoint inhibitors in combination with apilimod or ESK981 treatment against metastasis in a subcutaneous B16BL6 tumor; (Right) is a box plot of the counts of lung tumor metastasis treated with immune checkpoint inhibitors in combination with apilimod or ESK981.
All experimental protocols were conducted after approval by the U-M Institutional Animal Care & Use Committee. […] KPC1361 cells were resuspended in PBS, 1:1 (v/v) mixed with Matrigel (BD Biosciences; catalog #: 354248), and orthotopically injected to the pancreases at 250,000 cells in a total volume of 50 μl per injection. B16-F10 cells were resuspended in PBS and injected subcutaneously to both flanks at 400,000 cells per injection. For ACT study, B16-F10-OVA cells were resuspended in PBS and injected subcutaneously to both flanks at 300,000 cells per injection. For lung metastasis experiment, B16-BL6 cells were resuspended in PBS, 1:1 (v/v) mixed with Matrigel and injected subcutaneously to both flanks at 400,000 cells per injection. Fifteen days after tumor cell inoculation, the primary tumors were removed surgically under anesthesia. Thirty-five days after removal of the primary tumors, lung tissues were extracted and fixed, and lung metastasis was quantified. C57BL/6 mice were acquired from The Jackson Laboratory. Measurement of tumor volume began 5-9 days post tumor cell implantation and was performed 2-3 times per week using calipers. Volume measurements of pancreatic tumors were also achieved with calipers, as reported See, e.g., Koikawa, K. et al., Cell 2021; 184(18):4753-4771. In brief, mice were subjected to anesthesia with 2-3% isoflurane, and the abdominal wall then became soft and loose. The mouse was next held with the left hand allowing for the palpation and assessment of the firm pancreatic tumor mass with the right hand. […] Volume (mm^3) of tumor was calculated using (W^2×L)/2, where W stood for minor tumor axis and L for the major. All mice were maintained in a pathogen-free condition, with a 12-hour light/dark cycle.
For ICB treatment in KPC1361 pancreatic tumor-bearing mice, randomization was performed when tumors reached approximately 100 mm^3. For ACT and vaccine experiments, the mice were randomized when tumors reached approximately 35 mm^3. Anti-mouse PD-1 (clone RMP1-14) and its isotype control were purchased from BioXcell, administered intraperitoneally at 250 μg per mouse, biweekly. […]

[1] = Body weight of treated tumor-bearing mice; format: in vivo; settings: preclinical models; single agents and in combination with immunotherapies
Text: FIG. 9B is a line graph of the body weight of pancreatic tumor bearing mice, orthotopically injected with KPC1361 cells and treated with an immune checkpoint inhibitor, apilimod, or ESK981 individually, or in combination with each other.
FIG. 11A is a line graph of mice body weight treated with adoptive cell therapy (ACT) in combination with apilimod or ESK981.
FIG. 11B is a line graph of mice body weight treated with personalized vaccines in combination with apilimod or ESK981

KPC1361 cells = assay: MHC-I surface expression in Pikfyve-wildtype, Pikfyve-null, Atg5-null or Atg7-null cells; format: cell-based, mouse; settings: on-target test
Text: FIG. 1F (Left) is line graphs of flow cytometry measuring MHC-I surface expression in KPC1361 cells with or without Pikfyve KO, treated with DMSO, Bafilomycin, chloroquine, Apilimod, or ESK981; (Right) is bar graphs of quantification of flow cytometry measuring MHC-I surface expression in KPC1361 cells with or without Pikfyve KO, treated with DMSO, Bafilomycin, chloroquine, Apilimod, or ESK981.
FIG. 1G (Left) is a line graph of flow cytometry measuring MHC-I surface expression in KPC1361 cells with non-targeting single-guide RNA (control), or single-guide RNAs depleting Atg5 or Atg7, treated with DMSO or Apilimod; (Right) is a bar graph of quantification of flow cytometry measuring MHC-I surface expression in KPC1361 cells with non-targeting single-guide RNA (control), or single-guide RNAs depleting Atg5 or Atg7, treated with DMSO or Apilimod.
Cancer cells or the OVA-expressing cancer cells treated in vitro were harvested from dishes, resuspended in buffer MACS (PBS containing 2% FBS and 2 mM EDTA), and stained with Zombie NIR™ Fixable Viability kit (BioLegend: #423106) and fluorophore-conjugated antibody against MHC-I or PE-conjugated antibody against SIINFEKL bound H-2Kb (BioLegend; catalog #141604), respectively. The cells were next washed twice with 1 ml MACS and fixed with 2% paraformaldehyde in PBS for 15 minutes at room temperature. The cells were then subjected to the flow cytometer (SONY SH800S) for measuring surface expression of MHC-I or SIINFEKL bound H-2Kb, respectively. Antibodies used in this study include anti-H-2Kb (BD Biosciences; catalog #553570) and anti-H-2Db (28-14-8; Thermo Fisher Scientific; catalog #12-5999-82) for KPC1361 and B16-F10, anti-H-2Kd (BD Biosciences; catalog #562004) and anti-H-2Dd (BD Biosciences; catalog #553580) for 4T1, anti-H-2Kq (BD Biosciences; catalog #742296) and anti-H-2Dq/H-2Lq (BD Biosciences; catalog #744853) for MyC-CaP, and anti-HLA-A,B,C (clone w6/32; BioLegend; catalog #311406) for human cancer cells.

| Structure (SMILES) | efficacy of ICB to inhibit metastasis (B16-BL6 melanoma model) | lung metastasis (B16-BL6 melanoma model) | safety profile [1] | upregulation of MHC-I surface expression, Pikfyve-wildtype vs Pikfyve-null cells (KPC1361 cells) |
| --- | --- | --- | --- | --- |
| CC(C)Cn1c2ccc(Nc3ncccn3)cc2c2c3c(c4c(c21)CCc1nn(C)cc1-4)C(=O)NC3 [ESK981, 13-isobutyl-4-methyl-10-(pyrimidin-2-ylamino)-1,2,4,7,8,13-hexahydro-6H-indazolo[5,4-a]pyrrolo[3,4-c]carbazol-6-one] | strongly enhanced | reduction of lung metastasis | favorable safety profiles | only observed in the wildtype cells but not Pikfyve-null cells |
| Cc1cccc(/C=N/Nc2cc(N3CCOCC3)nc(OCCc3ccccn3)n2)c1 [apilimod, N-[(E)-(3-methylphenyl)methylideneamino]-6-morpholin-4-yl-2-(2-pyridin-2-ylethoxy)pyrimidin-4-amine] | strongly enhanced | reduction of lung metastasis | favorable safety profiles | only observed in the wildtype cells but not Pikfyve-null cells |
